From US20130172294A1, “Treatment with VB-201” (Vascular Biogenics Ltd., priority 2010, published 2013)
Like-named read-outs stand apart in the source and are kept apart here.

Columns and labels:
[1] = Repeated daily dose pharmacokinetics of VB-201 in plasma, 14 days (Example 2); format: in vivo, human; settings: for T1/2 (rec. ph.): recovery phase after Day 14
Protocol: Determination of VB-201 concentrations in plasma was performed using an HPLC-MS/MS (high performance liquid chromatography with tandem mass spectrometric detection) assay. Calibration was for a range of from 5 to 500 ng/ml for low doses and from 50 to 5000 ng/ml for high doses. Pharmacokinetic parameters were estimated by using a non-compartmental method, except for the AUC (area under curve), which was determined using a (log-) trapezoidal rule as the area above the previous trough level. […] The subjects were all healthy volunteers. […] 10 subjects received a placebo. The VB-201 was formulated in gelatin capsules enterocoated with Opadry AMB and Acryleze White. The 20 mg dose was originally in the form of 20 mg capsules. […] Pharmacokinetic blood samples for VB-201 determination were collected on Day 0 and Day 14, prior to dosing and 2, 4, 6, 8, 10, 12, 16 and 24 hours after dosing. […] Pharmacokinetic samples were also collected on Day 12 and Day 13, before dosing. Concentration-time curves were constructed for a time period of 24 hours on each of days 1 and 14. In addition, urine samples from the subjects receiving 30 mg VB-201 were assayed for VB-201 by high performance liquid chromatography-tandem mass spectrometry. […] The limit of detection was 1 ng/ml.

[2] = test system: C-reactive protein (CRP)
Protocol: C-reactive protein (CRP) levels in plasma samples were measured using a CRP Latex assay kit (Olympus) and an AU400® immuno-analyzer (Olympus).
A randomized, double-blind, placebo-controlled study was performed to in order to investigate the safety, tolerability and pharmacokinetics of VB-201 at a repeated, daily dose taken orally. The subjects were all healthy volunteers. Cohorts of six subjects each received a daily dose of 40 or 80 mg VB-201 in the morning, following at least 10 hours of fasting, for 14 days. 6 subjects received a placebo. The VB-201 was formulated in non-enterocoated capsules.
Further studies were performed on an additional cohort, which included six subjects receiving a daily dose of 80 mg VB-201, as described hereinabove, for 28 days. An additional two subjects received a placebo.
Plasma samples obtained on day 0 (pre-dosing) and on day 14 from the subjects in each cohort (40 mg for 14 days, 80 mg for 14 days, and 80 mg for 28 days), and on day 28 from the subjects of the cohort receiving 80 mg VB-201 for 28 days, were assayed for C-reactive protein (CRP) by the high sensitivity CRP assay described hereinabove.

[3] = Pharmacokinetics of VB-201 in human subjects, summary over the studies; format: in vivo
Protocol: Determination of VB-201 concentrations in plasma was performed using an HPLC-MS/MS (high performance liquid chromatography with tandem mass spectrometric detection) assay. Calibration was for a range of from 5 to 500 ng/ml for low doses and from 50 to 5000 ng/ml for high doses. Pharmacokinetic parameters were estimated by using a non-compartmental method, except for the AUC (area under curve), which was determined using a (log-) trapezoidal rule as the area above the previous trough level. All calculations were made using PKWizard (developed by Russell Barbare and Dr. […] was validated against WinNonlin (Pharsight Corp.), which is an FDA-recognized validated program. Pharmacokinetic parameters were calculated by the program according to standard methods used in the art. Calculation of the pharmacokinetic characteristics was based on the actual blood sampling time (in hours), with predose times set to zero. Concentrations below the LLOQ (lower limit of quantification; 4.974 ng/ml) were assumed to be zero.

- multi-day accumulation relative to a single dose, estimated from elimination data ([1]; continued once per day dosing): approximately 4 times
- AUC(0-24) ([1]; daily 5 mg, Day 1): 1731 ng·h/mL
- AUC(0-infinity) ([1]; daily 5 mg, Day 1): 6005 ng·h/mL
- AUMC (0-24) ([1]; daily 5 mg, Day 1): 23670 hours^2*ng/ml
- AUMC (0-infinity) ([1]; daily 5 mg, Day 1): 341432 hours^2*ng/ml
- Cl/F (0-24) ([1]; daily 5 mg, Day 1): 3.92 L/h
- Cmax ([1]; daily 5 mg, Day 1): 117.34 ng/mL
- Kc ([1]; daily 5 mg, Day 1): 0.0250 h⁻¹
- MTT ([1]; daily 5 mg, Day 1): 14.51 h
- T1/2 ([1]; daily 5 mg, Day 1): 32.18 h
- Tmax ([1]; daily 5 mg, Day 1): 10 h
- AUC(0-24) ([1]; daily 5 mg, Day 14): 6238 ng·h/mL
- AUC(0-infinity) ([1]; daily 5 mg, Day 14): 15913 ng·h/mL
- AUMC (0-24) ([1]; daily 5 mg, Day 14): 71173 hours^2*ng/ml
- AUMC (0-infinity) ([1]; daily 5 mg, Day 14): 821875 hours^2*ng/ml
- Accum. (accumulation) ([1]; daily 5 mg, Day 14): 4.75
- Cl/F (0-24) ([1]; daily 5 mg, Day 14): 0.90 L/h
- Cmax ([1]; daily 5 mg, Day 14): 340.31 ng/mL
- Kc ([1]; daily 5 mg, Day 14): 0.0278 h⁻¹
- MTT ([1]; daily 5 mg, Day 14): 11.41 h
- T1/2 ([1]; daily 5 mg, Day 14): 30.95 h
- Tmax ([1]; daily 5 mg, Day 14): 9.67 h
- T1/2 (rec. ph.) ([1]; daily 5 mg): 44.17 h
- AUC(0-24) ([1]; daily 10 mg, Day 1): 3494 ng·h/mL
- AUC(0-infinity) ([1]; daily 10 mg, Day 1): 9912 ng·h/mL
- AUMC (0-24) ([1]; daily 10 mg, Day 1): 45924 hours^2*ng/ml
- AUMC (0-infinity) ([1]; daily 10 mg, Day 1): 440602 hours^2*ng/ml
- Cl/F (0-24) ([1]; daily 10 mg, Day 1): 4.92 L/h
- Cmax ([1]; daily 10 mg, Day 1): 227.92 ng/mL
- Kc ([1]; daily 10 mg, Day 1): 0.0285 h⁻¹
- MTT ([1]; daily 10 mg, Day 1): 14.44 h
- T1/2 ([1]; daily 10 mg, Day 1): 27.09 h
- Tmax ([1]; daily 10 mg, Day 1): 11.33 h
- AUC(0-24) ([1]; daily 10 mg, Day 14): 12617 ng·h/mL
- AUC(0-infinity) ([1]; daily 10 mg, Day 14): 36183 ng·h/mL
- AUMC (0-24) ([1]; daily 10 mg, Day 14): 148375 hours^2*ng/ml
- AUMC (0-infinity) ([1]; daily 10 mg, Day 14): 2596242 hours^2*ng/ml
- Accum. (accumulation) ([1]; daily 10 mg, Day 14): 5.06
- Cl/F (0-24) ([1]; daily 10 mg, Day 14): 0.87 L/h
- Cmax ([1]; daily 10 mg, Day 14): 665.80 ng/mL
- Kc ([1]; daily 10 mg, Day 14): 0.0267 h⁻¹
- MTT ([1]; daily 10 mg, Day 14): 11.72 h
- T1/2 ([1]; daily 10 mg, Day 14): 34.27 h
- Tmax ([1]; daily 10 mg, Day 14): 11 h
- T1/2 (rec. ph.) ([1]; daily 10 mg): 35.77 h
- AUC(0-24) ([1]; daily 20 mg, Day 1): 4186 ng·h/mL
- AUC(0-infinity) ([1]; daily 20 mg, Day 1): 12721 ng·h/mL
- AUMC (0-24) ([1]; daily 20 mg, Day 1): 58323 hours^2*ng/ml
- AUMC (0-infinity) ([1]; daily 20 mg, Day 1): 752013 hours^2*ng/ml
- Cl/F (0-24) ([1]; daily 20 mg, Day 1): 5.21 L/h
- Cmax ([1]; daily 20 mg, Day 1): 294.23 ng/mL
- Kc ([1]; daily 20 mg, Day 1): 0.0307 h⁻¹
- MTT ([1]; daily 20 mg, Day 1): 14.04 h
- T1/2 ([1]; daily 20 mg, Day 1): 30.91 h
- Tmax ([1]; daily 20 mg, Day 1): 12.33 h
- AUC(0-24) ([1]; daily 20 mg, Day 14): 20553 ng·h/mL
- AUC(0-infinity) ([1]; daily 20 mg, Day 14): 47828 ng·h/mL
- AUMC (0-24) ([1]; daily 20 mg, Day 14): 229287 hours^2*ng/ml
- AUMC (0-infinity) ([1]; daily 20 mg, Day 14): 2070644 hours^2*ng/ml
- Accum. (accumulation) ([1]; daily 20 mg, Day 14): 4.90
- Cl/F (0-24) ([1]; daily 20 mg, Day 14): 1.46 L/h
- Cmax ([1]; daily 20 mg, Day 14): 1275.65 ng/mL
- Kc ([1]; daily 20 mg, Day 14): 0.0338 h⁻¹
- MTT ([1]; daily 20 mg, Day 14): 11.16 h
- T1/2 ([1]; daily 20 mg, Day 14): 25.09 h
- Tmax ([1]; daily 20 mg, Day 14): 7.33 h
- T1/2 (rec. ph.) ([1]; daily 20 mg): 30.89 h
- AUC(0-24) ([1]; daily 30 mg, Day 1): 6409 ng·h/mL
- AUC(0-infinity) ([1]; daily 30 mg, Day 1): 67386 ng·h/mL
- AUMC (0-24) ([1]; daily 30 mg, Day 1): 92749 hours^2*ng/ml
- AUMC (0-infinity) ([1]; daily 30 mg, Day 1): 11648110 hours^2*ng/ml
- Cl/F (0-24) ([1]; daily 30 mg, Day 1): 8.55 L/h
- Cmax ([1]; daily 30 mg, Day 1): 416.58 ng/mL
- Kc ([1]; daily 30 mg, Day 1): 0.0220 h⁻¹
- MTT ([1]; daily 30 mg, Day 1): 14.73 h
- T1/2 ([1]; daily 30 mg, Day 1): 72.30 h
- Tmax ([1]; daily 30 mg, Day 1): 19 h
- AUC(0-24) ([1]; daily 30 mg, Day 14): 30555 ng·h/mL
- AUC(0-infinity) ([1]; daily 30 mg, Day 14): 64120 ng·h/mL
- AUMC (0-24) ([1]; daily 30 mg, Day 14): 358861 hours^2*ng/ml
- AUMC (0-infinity) ([1]; daily 30 mg, Day 14): 2456341 hours^2*ng/ml
- Accum. (accumulation) ([1]; daily 30 mg, Day 14): 7.07
- Cl/F (0-24) ([1]; daily 30 mg, Day 14): 1.09 L/h
- Cmax ([1]; daily 30 mg, Day 14): 1821.40 ng/mL
- Kc ([1]; daily 30 mg, Day 14): 0.0333 h⁻¹
- MTT ([1]; daily 30 mg, Day 14): 11.78 h
- T1/2 ([1]; daily 30 mg, Day 14): 23.64 h
- Tmax ([1]; daily 30 mg, Day 14): 10 h
- T1/2 (rec. ph.) ([1]; daily 30 mg): 32.78 h
- VB-201 in urine samples ([1]; daily 30 mg, HPLC-MS/MS, limit of detection 1 ng/ml): No traces of VB-201 could be detected
- average accumulation rate ([1]; daily 5-30 mg, Day 14): approximately 5
- time of peak plasma concentrations after administration ([3]; oral, over the studies): 6 to 11 h
- minimum concentration during a 24-hour period relative to maximum concentration ([3]; regular once-daily administration (FIGS. 2 and 4)): at least 66.7%
Compound: CCCCCCCCCCCCCCCCOCC(COP(=O)([O-])OCC[N+](C)(C)C)OCCCCC(=O)O (stereo not shown) [VB-201, 1-hexadecyl-2-(4′-carboxybutyl)-glycerol-3-phosphocholine]
- induction or inhibition of metabolism ([1]; daily 5-30 mg): does not show significant induction or inhibition of metabolism
- reduction of plasma CRP levels ([2]; 40 mg per day for 14 days): 49%
- reduction of plasma CRP levels ([2]; 80 mg per day for 14 days): 43%
- reduction of plasma CRP levels ([2]; 80 mg per day for 28 days): 45%
